“Also recorded” adds a separate entry of the source.
Tests used:
[1] = regular dietary intake; cited from earlier work
[2] = RBC omega-3 fatty acid content, dietary study in beagle dogs; type: in vivo
Procedure: (§1) The test article, SDA, was administered in the diet once daily, 7 days per week, for up to 90 days to three groups (Groups 1-3) of male beagle dogs. The reference article, eicosapentaenoic acid (EPA), was administered to Group 4 on the same dosing regimen. Both SDA and EPA were supplied as ethyl esters. The control article, food grade high oleic sunflower oil (SFO), was administered to Group 5 on the same dosing regimen. SFO was also added to food of groups 1 through 4 so that all animals received a similar volume of oil per kg body wt. A dietary supplement, vitamin E, was added to all diets. Dosage levels were 21.4, 64.2 and 192.9 mg/kg/day SDA, 42.9 mg/kg/day EPA and were calculated for each animal based on body weight for Groups 1, 2, 3 and 4, respectively. Each group consisted of 15 males. Five animals/group were scheduled for each interim necropsy (study weeks 4 and 8) and the primary necropsy at the end of the 12-week treatment period. In addition, five animals were euthanized prior to randomization and test article administration to establish baseline levels of fatty acids (pretest necropsy).
(§2) The animals were observed twice daily for mortality and moribundity. Clinical examinations were performed daily, and detailed physical examinations were performed weekly. Individual body weights were recorded weekly. Food consumption was recorded daily and reported weekly. Blood samples for analysis of fatty acids were collected from five dogs scheduled for the pretest necropsy and from all surviving dogs during study weeks 2, 4, 8 and 12. All animals were euthanized, and in addition to liver and kidney sections, two samples of heart tissue were collected, one set was analyzed for fatty acid analysis and the other sample was retained for microscopic analysis at the scheduled necropsies. Sections from the heart, liver and kidney were examined microscopically from five animals during pretest and from 5 animals/group (Groups 3-5 only) at the study week 12 necropsy.
Blood samples were collected from the 5 dogs selected for the pretest necropsy and from all surviving dogs at study weeks 2, 4, 8 and 12. The samples were collected from the dog's jugular vein into tubes containing EDTA prior to the feeding/dosing regimen. The red blood cells (RBC) were separated from the plasma by centrifugation at 1500× for approximately 20 minutes at 4° C. The plasma was transferred to polypropylene tubes and stored at approximately −70° C. for future analysis. The buffy coat was removed from the packed RBCs, and the RBCs were divided approximately equally into two tubes.
(§3) Tissue preparation, lipid extraction and analysis were conducted according to a conventional protocol. Briefly, heart tissues were first lyophilized overnight, and then pulverized by grinding between two ground glass slides. The ground tissue was suspended in saline and subjected to 10-15 seconds of sonication. Lipids were extracted with methanol and methylene chloride, and the solvent evaporated under nitrogen. Thawed RBCs were extracted with isopropanol and hexane. After centrifugation of the stroma, the solvent was transferred and evaporated under nitrogen. Phospholipids extracted from heart and RBC samples were methylated with BF3, at 100° C. for 10 minutes. These conditions transmethylate glycerophospholipid FAs but not sphingolipid FAs. After heating, all samples were extracted with hexane and water. The hexane layer was removed, dried under nitrogen, and the FA methyl esters reconstituted in hexane for analysis by flame ionization gas chromatography. FAs were identified by comparison with known standards, and FA compositions were reported as weight percent of total FA.

[3] = Heart tissue omega-3 fatty acid content, dietary study in beagle dogs; type: in vivo
Procedure: as §1, §2, §3
Animals were euthanized by an intravenous injection of sodium pentobarbital followed by exsanguinations. Two samples of approximately 200 mg of heart tissue from the left ventricle were collected, rinsed in chilled saline, wrapped in aluminum foil, flash frozen in liquid nitrogen, and stored at approximately −70° C. The samples were analyzed for pathologic abnormalities.

[4] = dog, in vivo
Procedure: as §1, with “Five animals/group were scheduled for each interim necropsy (study weeks 4 and 8) and the primary necropsy at the end of the 12-week treatment period. In addition, five animals were euthanized prior to randomization and test article administration to establish baseline levels of fatty acids (pretest necropsy).” left out
The animals were observed twice daily for mortality and moribundity. […] Individual body weights were recorded weekly. Food consumption was recorded daily and reported weekly. […] All animals were euthanized, and in addition to liver and kidney sections, two samples of heart tissue were collected, one set was analyzed for fatty acid analysis and the other sample was retained for microscopic analysis at the scheduled necropsies. […]
Animals were euthanized by an intravenous injection of sodium pentobarbital followed by exsanguinations. […] The samples were analyzed for pathologic abnormalities. […]

[5] = dietary supplementation, human diet; phospholipid fractions; cited from earlier work

SMILES: CC/C=C\C/C=C\C/C=C\CCCCCCCC(=O)O [ALA, α-linolenic acid]
- Tissue concentrations of EPA and DHA [1]: proven ineffective in raising the tissue concentrations of EPA and DHA

SMILES: CC/C=C\C/C=C\C/C=C\C/C=C\C/C=C\CCCC(=O)O [EPA, eicosapentaenoic acid, reference compound]
- RBC omega-3 fatty acid content relative to SFO-treated dogs (negative control) ([2]; 42.9 mg/kg/day EPA in diet, between study weeks 2 and 12): 3-10 fold
- Heart tissue omega-3 fatty acid content relative to sunflower oil-treated dogs (negative control) ([3]; 42.9 mg/kg/day EPA in diet, between study weeks 4 and 12): 3-5 fold

SMILES: CC/C=C\C/C=C\C/C=C\C/C=C\CCCCC(=O)O [SDA, Stearidonic acid]
- Total omega-3 fatty acid content (RBC) over pretreatment levels ([2]; 21.4 mg/kg/day SDA, as early as study week 2): overall increase
- Time of peak of total omega-3 fatty acid content (RBC) ([2]; 21.4 mg/kg/day SDA, decreasing thereafter): approximately 4 weeks
- Total omega-3 fatty acid content (RBC) over pretreatment ([2]; 192.9 mg/kg/day SDA (Group 3), elevated from study week 2 through 12 weeks): approximately 2 fold
- Overall increase in omega-3 fatty acid content (RBC) over time compared with the EPA group ([2]; 192.9 mg/kg/day SDA vs 42.9 mg/kg/day EPA, slightly lower): comparable to the increase seen in the 42.9 mg/kg/day EPA group
- Omega-3 fatty acid content in red blood cells (RBC) ([2]; SDA 21.4, 64.2 and 192.9 mg/kg/day in diet, study weeks 2, 4, 8 and 12): increased in a dose-dependent manner
- Microscopic changes to heart, liver and kidney tissues [4]: did not cause any significant microscopic changes
- Microscopic findings (heart, liver, kidney) [4]: no microscopic findings attributed to test article administration
- Heart omega-3 fatty acid content over pretreatment levels ([3]; 21.4 mg/kg/day SDA, study week 4): negligible increase
- Heart omega-3 fatty acid content, peak over pretreatment levels ([3]; 21.4 mg/kg/day SDA, study week 8): approximately 1.5 fold
- Heart omega-3 fatty acid content over pretreatment levels ([3]; 192.9 mg/kg/day SDA, study week 12): approximately 3 fold
- Omega-3 fatty acid content in the heart tissue ([3]; SDA 21.4, 64.2 and 192.9 mg/kg/day in diet, study weeks 4, 8 and 12): increased in a dose-dependent manner
- Conversion into EPA and DPA and incorporation into cardiac and red blood cell membranes ([3]; SDA via the diet daily for 12 consecutive weeks, male beagle dogs): effectively converted into EPA and DPA
- Concentrations of EPA and DPA in erythrocytes and plasma [5]: increase the concentrations of EPA and DPA; also recorded: effectively converted into EPA and DPA

— US20070207223A1, “Means for improving cardiovascular health” (priority 2006, published 2007)
